Data taken from EP1613294B1, “PEPTIDES AND DERIVATIVES THEREOF AS INHIBITORS OF OXIDATIVE DAMAGE OF THE SKIN” (Bottega Verde S.r.l., priority 2003, dated 2004).
Peptide text beside a SMILES is read from it.

Legend:
[1] = Antioxidant activity, fluorimetric assay of R-Phicoerytrine (RPE) oxidation by AAPH-generated peroxyl radicals; format: biochemical; conditions: substance at 25 µM; average ± S.D of 4 determination
Method: The amount of RPE oxidation is determined by fluorimetric analysis and the results are expressed as Trolox equivalents (reference compound).
(the hydrophilic analogue of vitamin E).
The values are the average ± S.D of 4 determination

[2] = Copper (II) chelation by spectrophotometric analysis; format: physicochemical; conditions: phosphate buffer (1 mM), 37°C, 1 mM copper sulphate (1:1 molar ratio); free copper (II) band at 800 nm disappears
Method: For this purpose, first we evaluated the ability of H-His-Tyr-OH and H-Tyr-His-OH to chelate copper (II) by spectro-photometric analysis. The peptides are dissolved in phosphate buffer (1 mM) and incubated at 37°C with 1 mM copper sulphate (1:1 molar ratio).

[3] = system: keratinocytes (NCTC 2544 human cell line); assay: Cytoprotection of keratinocytes exposed to UVB and HNE (morphology, cell viability by calcein assay); format: cell-based; conditions: for protective effect (morphological analyses and recovery in cell viability): added to incubation medium concomitant to HNE and UVB exposure, result in words
Method: The experimental model involves the exposure of the cellular mono-layer to the minimal UVB erythematal dose, MED=50 mJ/cm^2, (Vilber Lourmat VLX-3W radiometer equipped with a UVB probe at 312 nm)and, 4 hours of post-incubation, to the HNE insult (70 nmoles/mg protein).
The combination of physical (UVB) and chemical (HNE) stress is used to simulate the conditions of cellular damage of the skin during the cutaneous intrinsic and photo-induced aging process.

[4] = HNE quenching activity in homogeneous phase (HNE consumption by HPLC); format: biochemical; conditions: 200 µM HNE, 37°C, average ± S.D of 4 determinations; for RESIDUAL HNE (%) 1 hr of incubation: phosphate buffer 10 mM pH 7.4, 1 hr; for RESIDUAL HNE (%) 24 hrs of incubation: phosphate buffer 10 mM pH 7.4, 24 hrs
From the text: 4-hydroxy-trans-nonenal (HNE) was used throughout the study, as the prototype of α,β-unsaturated aldehydes since it represents the main oxidative degradation product of ω-6 polyunsaturated fatty acids, such as arachidonic and linoleic acids, and it is formed in large amount in the skin under different patho-physiological conditions, such as intrinsic and photo-induced skin aging [Tanaka N, Arch Dermatol Res, 293, 363-367, 2001].
A homogeneous phase model was first used to evaluate the ability of H-His-Tyr-OH and H-Tyr-His-OH to react and deactivate the cytotoxic agent HNE (quenching activity). In particular, the di-peptides were incubated at 37°C in a phosphate buffer, 10 mM pH 7.4, in the presence of 200 µM HNE. HNE consumption was determined after 1 hour and 24 hours of incubation by HPLC analysis, under the following experimental conditions: HP1050 (Hewlett Packard, Milano, Italy) equipped with a quaternary pump, self-sampling, on-line degasser, UV/VIS photodiode detector. The separations were performed by means of a Supelco LC18 column (25 cm x 4.6 mm i.d.; particle size 5 µm) and an isocratic elution system: 60% of phase A (H2O/CH3CN/HCOOH 90/1.0/0.] v/v/v) and 40% of phase B (H2O/CH3CN 10/90 v/v/v).
The values are expressed as the average ± S.D of 4 determinations.

[5] = system: human kcratinocytcs cell line (NCTC 2544 human cell line); assay: Antioxidant cell protection of keratinocytes against AAPH-induced oxidative damage (MTT, morphology, lipid peroxidation with BODIPY 581/591); format: cell-based; conditions: 6 hours exposure to 40 mM AAPH
Method: The H-His-Tyr-OH and H-Tyr-His-OH antioxidant activity was subsequently devaluated in a cellular model using human kcratinocytcs cell line (NCTC 2544 human cell line, Flow Laboratories, Irvine, UK), subjected to oxidative damage induced by a flux of peroxyl radicals generated by the radical initiator 2,2'-azobis([…]) dihydrochloride (AAPH). The following parameters were evaluated as markers of cellular damage: mitochondrial functionality as an index of cell viability (MTT assay), cellular morphology (phase contrast microscopic examinations), and lipid peroxidation, using 4,4-difluoro-5-(4-phenyl-1,3-butadienyl)-4-bora-3a,4a-diazo-s-indacene-3-undecanoic acid(BODIPY 581/591) as membrane fluorescent probe [Pap et al, FEBS Lett. 453:278-282, 1999]. A dramatic cytotoxic effect was observed after 6 hours exposure to 40 mM AAPH(fig.5).
The addition of H-His-Tyr-OH to the incubation medium causes a significant and dose-dependent cell protection, which is significant for all the parameters considered, already at 0.5 mM, with a total protection at 10 mM (fig. 5).

Row | SMILES | TROLOX equivalent [1] [µM] | λmax of the absorption band of the peptide-copper(II) complex [2] [nm] | protective effect (morphological analyses and recovery in cell viability) [3] | RESIDUAL HNE (%) 1 hr of incubation [4] [%] | RESIDUAL HNE (%) 24 hrs of incubation [4] [%] | minimal effective concentration ([5]; mitochondrial functionality, morphology, lipid peroxidation, read-out: concentration at which cell protection is already significant for all the parameters considered) [µM] | EC100 ([5]; read-out: concentration giving total protection) [µM] | EC100 ([3]; Homo sapiens, NCTC-2544, light or radiation study, UVB 50 mJ/cm^2 + HNE 70 nmoles/mg protein, determined 6 hours after the addition of HNE, read-out: concentration at which cells are completely protected (morphological analysis)) [µM] | minimal effective concentration ([3]; Homo sapiens, NCTC-2544, light or radiation study, UVB 50 mJ/cm^2 + HNE 70 nmoles/mg protein, determined 6 hours after the addition of HNE, read-out: concentration at which the cytoprotective activity is already significant) [µM]
1 | Cc1c(C)c2c(c(C)c1O)CCC(C)(C(=O)O)O2 (stereo not drawn) [Trolox, reference compound] | 25 | – | – | – | – | – | – | – | –
2 | NC(Cc1ccc(O)cc1)C(=O)NC(Cc1cnc[nH]1)C(=O)O (stereo not drawn) [H-Tyr-His-OH] (H-Tyr-His-OH; configuration not given here) | 17.28 ± 0.89 | 600 | dose-dependent protective effect | 85.31 ± 6.29 | 20.02 ± 4.09 | – | – | – | –
3 | NC(Cc1cnc[nH]1)C(=O)NC(Cc1ccc(O)cc1)C(=O)O (stereo not drawn) [H-His-Tyr-OH] (H-His-Tyr-OH; configuration not given here) | 16.90 ± 0.54 | 650 | dose-dependent protective effect | 80.16 ± 7.57 | 15.41 ± 0.49 | 500 | 10000 | 20000 | 2000
4 | NCCC(=O)N[C@@H](Cc1cnc[nH]1)C(=O)O [Carnosine, reference compound] | 4.94 ± 0.3 | – | – | – | – | – | – | – | –
5 | N=C(N)NN [Amino guanidine, reference compound] | – | – | – | 95.31 ± 0.08 | 72.04 ± 3.97 | – | – | – | –
